Assay results taken from the AptaBench aptamer set (doi:10.1093/nar/gkaf219).
pKd: −log10 of the molar value. Blank lines part the entries; values can stand above or below the compound they belong to.

Tests used:
Details in all cases: 10 mM Tris-HCl, pH 7.4
[1] = system: DNA aptamer or structured DNA CTTACGACAGTAACGGTGGGTATATGGGATTTATGTTCGTCGTAAG
[2] = system: DNA aptamer or structured DNA CTTACGACAGGTTCTGAGGAATCAACGTCGGTGTAGTTGTCGTAAG
[3] = system: DNA aptamer or structured DNA GGGACGACGGCACGAGGTTAATCGTTGGTTGCACTGCGCTGGGAGGCAGTCGTCCC
[4] = system: DNA aptamer or structured DNA GGGACGACGCACTATGGCTAGGGTTGGTACGGTCGTGAACCGCGGGGTGTCGTCCC
[5] = system: DNA aptamer or structured DNA GGGACGACGGCACGGGGTTATTCGTTGGTTGCACTGCGCTGGGAGGCAGTCGTCCC
[6] = system: DNA aptamer or structured DNA GGGACGACGGCTTAGCAAAGCTAGTAGGGGTCCACGCTGTCGTCCC
[7] = system: DNA aptamer or structured DNA CTTACGACTAGGTGTGGGTCGGCGCTAGGGGCAGGGTAGTCGTAAG
[8] = system: DNA aptamer or structured DNA TTCAAATCTTGCGAATTGGACTCAGAATGTGGGTTTGCCAGTCTAGATTTGAA
[9] = system: DNA aptamer or structured DNA GGGACGACTGGCGCCGGATTCCCTAAGGTACACGGACTGTCGTCCC
[10] = system: DNA aptamer or structured DNA GGGACGACGAGGGCACGTCTGTGTGCAGGGTTTCGCGCGTCGTCCC
[11] = system: DNA aptamer or structured DNA GGGACGACTGCTTGGGTAGGTCGGGTTTGGGTGCGGCGGTCGTCCC
[12] = system: DNA aptamer or structured DNA GGGACGACGCGTACCTGTGGTAGTTGTACGTCGTTCAAGTCGTCCC
[13] = system: DNA aptamer or structured DNA GGGACGACAAGTACCAAGGGTAGCTCTGCGTTGTTCGAGGTCGTCCC
[14] = system: DNA aptamer or structured DNA GGGACGACCGTTGGCGAGTGTGTCCGGGGACTACAGGGGTCGTCCC
[15] = system: DNA aptamer or structured DNA CTTACGACGACCTATTGGGGGTAGTTATAGTTGGGTGAGTCGTAAG
[16] = system: DNA aptamer or structured DNA GGGACGACGAGTGCGGGGAGTGTGTTTCTGTGGGGGTCGTCGTCCC
[17] = system: DNA aptamer or structured DNA GGGACGACGCGTAGGTCTCCTAGCTGTGCGTCGTTCAAGTCGTCCC
[18] = system: DNA aptamer or structured DNA GGGACGACAGGGATTCGGTCTTGGTACATAGGGGCCTCGTCTGTCGTCCC
[19] = system: DNA aptamer or structured DNA GGGACGACGGGGATTCGCGGATTCATGGAAAAGGGCTCGTCTGTCGTCCC
[20] = system: DNA aptamer or structured DNA GGGACGACTAGTGCCTTCGCGTTGTTCGGGAATCCGGTTCCGTCGTCCC
[21] = system: DNA aptamer or structured DNA GGGACGACAGGGATTCGGTCTTGGAACAAAGGGGCCTCGTCTGTCGTCCC
[22] = system: DNA aptamer or structured DNA GGGACGACGGGGATTCGCGGATTCATAGAAAAGGGCTCGTCCGTCGTCCC
[23] = system: DNA aptamer or structured DNA GGGACGACTACAGGTCGTGCGTCGCTCGAGTTGGTGAGTGTGTCGTCCC
[24] = system: DNA aptamer or structured DNA GGGACGACGGCACGTGGTTATTCGTTGGTTGCACTGCGCTGGGAGGCAGTCGTCCC
[25] = system: DNA aptamer or structured DNA GGGACGACGGGGGGCTTTAGGGTGTAGGAGTGGGGTGAGTCGTCCC
[26] = system: DNA aptamer or structured DNA GGGACGACGGAGGTTTAGGGTTTAGGTAGTGGGTTGAAGTCGTCCC
[27] = system: DNA aptamer or structured DNA GGGACGACGCCGGCTTTTAGGGGGGGTGTGGGTGGCGAGTCGTCCC
[28] = system: DNA aptamer or structured DNA CTTACGACATCTGCGTGTGGCCGGTGTGAGGGAGGGATGTCGTAAG
[29] = system: DNA aptamer or structured DNA GGGACGACGCAGCAGTCCATCTCTCAGCGAGTTCGTCAGTCGTCCC
[30] = system: DNA aptamer or structured DNA GGGACGACCGTTGTTCGAGCCTTGAGTACCATTGGTAGGTCGTCCC
[31] = system: DNA aptamer or structured DNA CTTACGACGGTGGGGGGTTGGTAGGGGAGGAGCGCATCGTCGTAAG
[32] = system: DNA aptamer or structured DNA GGGACGACATGGGATGGAGCTATGCGAGCATGTGGTGTGTCGTCCC
Throughout, for binding call: call rule not given here.

Compound: CCCC(C(=O)c1ccc2c(c1)OCO2)N1CCCC1 (stereo not drawn)
binding call [1]: no binding
binding call [2]: no binding
binding call [3]: no binding
binding call [4]: no binding

Compound: Cc1nnc2n1-c1ccc(Cl)cc1C(c1ccccc1)=NC2
binding call [5]: no binding
binding call [6]: no binding
binding call [7]: no binding
binding call [8]: no binding
binding call [9]: no binding
binding call [10]: binds
binding call [11]: no binding
binding call [12]: no binding
binding call [13]: no binding
binding call [14]: no binding

binding call [6]: no binding
binding call [7]: no binding
binding call [15]: no binding
binding call [16]: no binding
binding call [1]: no binding
binding call [2]: no binding
binding call [9]: no binding
binding call [12]: no binding
binding call [13]: no binding
binding call [17]: no binding
binding call [14]: no binding
Compound: c1ccc([C@H]2CN3CCSC3=N2)cc1

Compound: CN1CC[C@]23c4c5ccc(O)c4O[C@H]2[C@@H](O)C=C[C@H]3[C@H]1C5
binding call [5]: no binding
binding call [7]: no binding
pKd [18]: 5.96
binding call [19]: binds
pKd [20]: 4.71
binding call [3]: no binding
pKd [21]: 5.96
pKd [22]: 5.60
pKd [23]: 5.46

Compound: CC(N)Cc1ccccc1 (stereo not drawn)
binding call [5]: binds
binding call [8]: no binding
binding call [24]: binds
binding call [25]: no binding
binding call [3]: binds
binding call [26]: no binding
binding call [11]: no binding
binding call [4]: binds
binding call [27]: no binding

Compound: CN[C@@H](C)[C@@H](O)c1ccccc1
binding call [5]: no binding
binding call [6]: no binding
binding call [3]: no binding
binding call [4]: no binding
binding call [28]: binds

binding call [1]: no binding
binding call [10]: binds
binding call [29]: binds
Compound: CC(=O)Nc1ccc(O)cc1

Compound: CC(C)[C@H](NC(=O)c1nn(Cc2ccc(F)cc2)c2ccccc12)C(N)=O
pKd [8]: 6.00
pKd [25]: 6.86
pKd [26]: 7.27
pKd [27]: 5.39

binding call [5]: no binding
binding call [18]: no binding
binding call [24]: binds
binding call [19]: no binding
binding call [20]: no binding
binding call [3]: binds
binding call [21]: no binding
binding call [4]: no binding
binding call [23]: no binding
Compound: NCC(O)c1ccc(O)c(O)c1 (stereo not drawn)

Compound: CNC(C)Cc1ccc2c(c1)OCO2 (stereo not drawn)
binding call [5]: binds
binding call [8]: no binding
binding call [24]: binds
binding call [2]: no binding
binding call [25]: no binding
binding call [3]: binds
binding call [26]: binds
binding call [4]: no binding
binding call [27]: no binding

binding call [8]: no binding
binding call [18]: no binding
binding call [1]: no binding
binding call [19]: no binding
binding call [2]: no binding
binding call [25]: no binding
binding call [26]: no binding
binding call [11]: binds
binding call [21]: no binding
binding call [22]: no binding
binding call [28]: binds
binding call [27]: no binding
binding call [23]: no binding
Compound: CCN(CC)CCOC(=O)c1ccc(N)cc1

binding call [8]: no binding
binding call [16]: no binding
binding call [1]: no binding
binding call [26]: no binding
binding call [21]: no binding
binding call [17]: no binding
binding call [4]: no binding
Compound: CCN(CC)CC(=O)Nc1c(C)cccc1C

binding call [6]: no binding
binding call [7]: no binding
binding call [9]: no binding
binding call [17]: no binding
binding call [14]: no binding
Compound: OC[C@@H](O)[C@@H](O)[C@H](O)[C@H](O)CO

Compound: COC(=O)C(c1ccccc1)C1CCCCN1 (stereo not drawn)
binding call [11]: binds

binding call [6]: no binding
binding call [7]: no binding
binding call [15]: no binding
binding call [1]: no binding
binding call [30]: no binding
binding call [13]: no binding
binding call [14]: no binding
binding call [31]: no binding
Compound: CCOC(=O)c1ccc(N)cc1

Compound: COC(=O)[C@@H]1C2CCC(C[C@@H]1OC(=O)c1ccccc1)N2C (stereo partly drawn)
pKd [7]: 6.50
binding call [8]: no binding
pKd [15]: 6.45
pKd [1]: 6.55
pKd [2]: 7.66
binding call [25]: no binding
binding call [10]: no binding
binding call [26]: no binding
binding call [11]: no binding
binding call [17]: no binding
binding call [32]: no binding
binding call [27]: no binding
binding call [14]: no binding
pKd [31]: 5.96

Compound: CN[C@@H](C)Cc1ccccc1
pKd [5]: 5.28
binding call [7]: no binding
binding call [8]: no binding
binding call [15]: no binding
pKd [24]: 5.21
binding call [2]: no binding
binding call [25]: no binding
binding call [10]: no binding
pKd [3]: 5.19
binding call [26]: no binding
binding call [29]: no binding
binding call [17]: no binding
pKd [4]: 4.91
binding call [28]: binds
binding call [27]: no binding

Compound: CN1C2CCC1[C@@H](C(=O)O)[C@@H](OC(=O)c1ccccc1)C2 (stereo partly drawn)
binding call [7]: no binding
binding call [1]: no binding
binding call [2]: binds

binding call [1]: binds
binding call [30]: no binding
binding call [29]: no binding
binding call [13]: no binding
binding call [28]: no binding
binding call [14]: no binding
binding call [31]: no binding
Compound: Cn1c(=O)c2c(ncn2C)n(C)c1=O

binding call [15]: no binding
binding call [1]: no binding
Compound: CC(C)Cc1ccc(C(C)C(=O)O)cc1 (stereo not drawn)

Compound: CCC(=O)C(CC(C)N(C)C)(c1ccccc1)c1ccccc1 (stereo not drawn)
binding call [25]: no binding
binding call [26]: binds
binding call [11]: binds
binding call [4]: no binding
binding call [27]: no binding
